Data taken from patent publication US20230000808A1, “COMPOSITIONS AND METHODS EXCLUDING OR WITH REDUCED GLUTAMINE FOR THE TREATMENT OF HEMOGLOBINOPATHIES AND THALASSEMIAS” (AXCELLA HEALTH INC., priority 2019, published 2023).

Columns and labels:
IL-6 = assay: Secreted IL-6 in HLMVEC treated with TNF-α (FirePlex); type: cell-based, human; details: HLMVEC + 0.5 ng/mL TNF-α, 24 h; amino acids 20x HMDB, Nac/Cit/Car 5 mM as bracketed
Method: (§1) Primary Human Lung Microvascular Endothelial Cells (HLMVEC; Lonza) were seeded at 6,000 cells per well in Endothelial Cell Growth Basal Medium-2 (Lonza) supplemented with Fetal Bovine Serum (FBS; Lonza), human EGF (Lonza), human VEGF (Lonza), R3-Insulin-like Growth Factor-1 (Lonza), ascorbic acid (Lonza), hydrocortisone (Lonza), human FGF-beta (Lonza), and gentamicin/amphotericin-b (Lonza) in a 96-well plate (Thermo Fisher). The cells were incubated for 45 minutes at room temperature, then incubated overnight at 37° C./5% CO2.
(§2) Following overnight incubation, cell were washed once with 150 μL of Dulbecco's phosphate buffered saline (DPBS; Gibco), and then treated with Endothelial Basal Medium MCB-131 (amino acid, glucose, sodium pyruvate, and phenol red free; US Biologicals) containing a defined custom amino acid concentration based on physiological concentrations in blood of patients with SCD (thus recapitulating observed metabolic imbalances such as the depletion of certain essential amino acids including arginine and aspartate and enrichment of certain non-essential amino acids including glutamate and asparagine), dialyzed FBS (Hyclone), human EGF (Lonza), human VEGF (Lonza), R3-Insulin-like Growth Factor-1 (Lonza), ascorbic acid (Lonza), hydrocortisone (Lonza), human FGF-beta (Lonza), and gentamicin/amphotericin-b (Lonza), glucose, 10 mM HEPES, sodium pyruvate, and sodium bicarbonate supplemented with one of the following: • a. PBS (vehicle control), • b. 0.5 ng/mL Tumor Necrosis Factor alpha (TNFα) and PBS, or; • c. 0.5 ng/mL TNF-α and amino acid treatments at 20× mean physiological concentrations in plasma based on values published in the Human Metabolome Database (HMDB) in PBS.
Supernatants were analyzed for IL-6 concentrations using a Human Cytokines FirePlex-HT Panel 1 kit (abcam) according to the manufacturer-supplied instructions. Particles were imaged on a high content imager (Molecular Devices), and results were interpolated from a standard curve with FirePlex Analysis Workbench Software (abcam) according manufacturer's recommendations.

ICAM-1 = ICAM-1 cell integrated intensity in HLMVEC treated with TNF-α (immunofluorescence); type: cell-based, human; details: HLMVEC + 0.5 ng/mL TNF-α, 24 h; amino acids 20x HMDB, Nac/Cit/Car 5 mM as bracketed
Method: as §1, §2
(§3) After 24 hours of treatment, cells were washed once with 150 μL of DPBS (Gibco), then fixed with 4% paraformaldehyde. Following fixation, cells were stained with anti-ICAM-1 [MEM-111] (mouse IgG2a anti-human; abcam) and anti-VCAM1 [1.4C3] (mouse IgG1, K anti-human; abcam) primary antibodies at 1000×, and 100× dilutions respectively. Cells were then stained with Goat anti-Mouse IgG2a Cross-Adsorbed Secondary Antibody, Alexa Fluor 594 (Invitrogen) and Goat anti-Mouse IgG1 Cross-Adsorbed Secondary Antibody, Alexa Fluor 647 (Invitrogen) secondary antibodies. Nuclei were stained with Hoechst 3342 (Life Technologies).
(§4) Antibody binding was detected by fluorescence microscopy using a high content imager (Molecular Devices). Images were analyzed using MetaXpress 6 software to determine the integrated intensity per cell for each wavelength corresponding to ICAM-1 or VCAM-1.

[1] = system: RBCs of healthy whole blood; assay: RBC deformability (Elongation Index, LORRCA ektacytometry), ex vivo TBHP oxidation of healthy whole blood; type: cell-based, human; details: healthy donor 2, single amino acid treatments
From the text: Whole blood from healthy African American and/or Hispanic donors was obtained from Research Blood Components, LLC based on the following donor selection criteria: Adult age (between 18 and 50 years), normal BMI (<30), and absence of other confounding clinical conditions. Whole blood from SCD donors were obtained from BioIVT based on the following donor selection criteria: Patients with genotypes HbSS, HbSC, HbS/β^0 and at least 1-2 months gap since last blood transfusion. Whole blood was shipped on ice on the same day as blood draw. Upon receipt, the blood sample was aliquoted and stored in the refrigerator until used for studies.
RBC deformability measurements were conducted with the Laser Optical Rotational Red Cell Analyzer (LORRCA) from RR Mechatronics in a temperature-controlled environment (37° C.). Briefly, an even layer of RBCs suspended in polyvinylpyrrolidone (PVP) is subjected to shear stress gradient (0.3 to 30 Pa) through two concentric cylinders and the resulting changes in RBC shape or deformability are measured by a laser beam diffraction pattern. The captured images of RBC shape in response to increasing shear stress are then analyzed by the LORRCA program to calculate Elongation Index (EI).
Healthy RBCs have higher deformability ≥0.5 EI and SCD RBCs have lower deformability or EI values as studied by LORRCA ektacytometry in the field. […] The induced hemolysis model in this disclosure involves use of tert-butyl hydroperoxide (TBHP) to lower EI of RBCs.
The ex vivo hemolysis study disclosed here involves overnight treatment of whole blood with vehicle as a control and specific amino acids followed by rapid oxidation (5 min) with TBHP. Method for oxidation of whole blood with tert-butyl hydroperoxide has been used in prior literature (Diederich L, et al, Front Physiol. 2018 May 11; 9:332). RBC deformability or shape changes are then measured with LORRCA ektacytometry.
Whole blood aliquots stored in the fridge were brought up to room temperature while gently shaking on a rocker at low speed for an hour to ensure gradual and uniform suspension of red blood cells prior to deformability measurements. Vehicle control used in the study was 1× Dulbecco's […]) and amino acids disclosed herein were added (at either final 10× or 2.5 mM concentration as indicated) to corresponding vehicle and amino acid treatment conditions. The samples were then incubated overnight at 37° C. The next day, 25 μl of whole blood was taken from each treatment condition and added to 5 mL Elon ISO viscous solution from RR Mechatronics. The sample was inverted 15-20 times to ensure proper mixing of the treated RBCs with the Elon ISO solution followed by loading the sample on LORRCA and capturing RBC deformability or shape measurements over the applied shear gradient. The remaining whole blood treatments were returned to incubator (37° C.) until deformability measurements were completed for all treatments. To the remaining whole blood treatment samples, TBHP solution (5.0-6.0 M in Decane, Sigma) was added at 2.5 mM final concentration from a 100 mM freshly prepared stock and incubated for further 5 min at 37° C. 25 μl of this TBHP-treated sample was immediately removed at the end of the 5 min incubation and added to the Elon ISO solution for RBC deformability measurement after oxidation. Included in the Tables 13-15 are EI measurements at ½ EImax shear stress 1.69 Pa and EImax shear stress 30 Pa from these studies and FIG. 1 captures EI measurements for all shear stress points for the indicated treatment conditions.

[2] = Pharmacokinetics following oral dose administration to male Sprague-Dawley rats (plasma amino acids, LC-MS); details: analyte after oral gavage of RCitNacQCarLHKVS
Method: A pharmacokinetic (PK) analysis was performed on plasma concentrations of various combinations of amino acid compounds administered by oral gavage to male Sprague-Dawley rats. Four animals were dosed with RCitNacQCarLHKVS, a test article comprising ten amino acid components: arginine, citrulline, N-acetylcysteine (Nac), glutamine, carnitine, leucine, histidine, lysine, valine, and serine (Table 19). Animals were fasted for 2 hours prior to dose administration. Plasma samples were taken immediately pre-dose and 0.5, 1, 2, 3, 4, and 5 hours post-dose.
Bioanalysis of collected plasma samples for amino acid content was performed at Axcella Health using an LC-MS method (Section 2.1). Bioanalytical data were analyzed using noncompartmental analysis with PHOENIX® WINNONLIN® (v8.1).
An LC/MS method utilizing HILIC chromatography and high-resolution mass spectrometry was used to quantify amino acids in rat plasma. […]
PK parameters of test article components were determined from individual rat plasma concentration-time data by employing a noncompartmental approach using Phoenix WINNONLIN® (Version 8.1) software. […] This program analyzed data using the standard methods described by Gibaldi and Perrier (see M. Gibaldi and D. Perrier, Pharmacokinetics, 2nd edition, New York: Marcel-Dekker, Inc.; 1982.).

VCAM-1 = VCAM-1 cell integrated intensity in HLMVEC treated with TNF-α (immunofluorescence); type: cell-based, human
Method: as §1, §2, §3, §4

HLMVEC = assay: META-rank score, composite of VCAM1, ICAM1 and IL6 in the HLMVEC model; type: cell-based, human; details: HLMVEC + TNF-α; lower score = more optimal; 20x HMDB / 5 mM
Method: The ability of single amino acids and combinations to simultaneously impact these phenotypes was measured by a META-rank score (Tables 17 and 18). META-rank score is a composite measure that considers the optimal impact on all 3 phenotypes (e.g. decrease VCAM1, ICAM1, and IL6) in the HLMVEC model.

- plasma concentration over the five-hour time course [2]: continuously increased
SMILES: C[N+](C)(C)CC(O)CC(=O)[O-] (centres unmarked) [Car, carnitine]
- Secreted IL6 Median (IL-6): −0.022
- ICAM-1 Cell Integrated Intensity Median (ICAM-1): −0.013
- EI over vehicle control, both ½ EImax and EImax [1]: higher than the vehicle
- VCAM-1 expression in HLMVEC (VCAM-1; 0.5 ng/mL TNF-α, amino acids at 20× HMDB, 24 hours): moderate effect
- VCAM-1 Cell Integrated Intensity Median (VCAM-1; HLMVEC + 0.5 ng/mL TNF-α, 24 h, amino acids 20x HMDB, Nac/Cit/Car 5 mM as bracketed): −0.017
- Meta-Rank (Table 18) (HLMVEC): 12.5
- Metarank (Table 17) (HLMVEC): 24
